For 1 molecule, EC50 results are on record in patent US8440700B2, “Substituted aryloxazoles and their use” (Bayer Intellectual Property GmbH, priority 2007, dated 2013).

Format in all cases: cell-based
Experiment [1] concerns the target T1, adenosine A1 receptor (Homo sapiens, UniProt P30542).
T1 construct: expressed in transfected cells; host or cells: CHO (Chinese Hamster Ovary)
T1 sequence (P30542 1-326): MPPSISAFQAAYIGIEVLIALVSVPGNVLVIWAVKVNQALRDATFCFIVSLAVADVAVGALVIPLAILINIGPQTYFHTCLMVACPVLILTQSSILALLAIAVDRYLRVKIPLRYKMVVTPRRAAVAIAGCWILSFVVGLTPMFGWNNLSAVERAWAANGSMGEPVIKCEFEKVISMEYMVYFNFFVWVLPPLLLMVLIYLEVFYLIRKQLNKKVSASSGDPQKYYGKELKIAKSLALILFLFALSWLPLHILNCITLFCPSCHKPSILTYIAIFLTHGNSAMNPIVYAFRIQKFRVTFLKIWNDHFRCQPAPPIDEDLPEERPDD
Nature of the experiment: Indirect determination of adenosine agonism by way of gene expression (luciferase, CHO cells), A1. Conditions: CHO cells stably transfected with A1 receptor cDNA; 1 μM forskolin; 50% inhibition of luciferase answer. The source says: (§1) B-1. Indirect Determination of the Adenosine Agonism by Way of Gene Expression
(§2) Cells of the CHO (Chinese Hamster Ovary) permanent cell line are transfected stably with the cDNA for the adenosine receptor subtypes A1, A2a and A2b. The adenosine A1 receptors are coupled to the adenylate cyclase by way of Gi proteins, while the adenosine A2a and A2b receptors are coupled by way of Gs proteins. In correspondence with this, the formation of cAMP in the cell is inhibited or stimulated, respectively. After that, expression of the luciferase is modulated by way of a cAMP-dependent promoter. The luciferase test is optimized, with the aim of high sensitivity and reproducibility, low variance and good suitability for implementation on a robot system, by varying several test parameters, such as cell density, duration of the growth phase and the test incubation, forskolin concentration and medium composition. The following test protocol is used for pharmacologically characterizing cells and for the robot-assisted substance screening:
(§3) The stock cultures are grown, at 37° C. and under 5% CO2, in DMEM/F12 medium containing 10% FCS (foetal calf serum) and in each case split 1:10 after 2-3 days. The test cultures are seeded in 384-well plates with 2000 cells per well and grown at 37° C. for approx. 48 hours. The medium is then replaced with a physiological sodium chloride solution (130 mM sodium chloride, 5 mM potassium chloride, 2 mM calcium chloride, 20 mM HEPES, 1 mM magnesium chloride hexahydrate, 5 mM sodium bicarbonate, pH 7.4). The substances to be tested, which are dissolved in DMSO, are pipetted into the test cultures (maximum final concentration of DMSO in the test mixture: 0.5%) in a dilution series of from 5×10^−11M to 3×10^−6M (final concentration). 10 minutes later, forskolin is added to the A1 cells and all the cultures are subsequently incubated at 37° C. for four hours. After that, 35 μl of a solution which is composed of 50% lysis reagent (30 mM disodium hydrogenphosphate, 10% glycerol, 3% TritonX100, 25 mM TrisHCl, 2 mM dithiotreitol (DTT), pH 7.8) and 50% luciferase substrate solution (2.5 mM ATP, 0.5 mM luciferin, 0.1 mM coenzyme A, 10 mM tricine, 1.35 mM magnesium sulphate, 15 mM DTT, pH 7.8) are added to the test cultures, which are shaken for approx. 1 minute and the luciferase activity is measured using a camera system. The EC50 values are determined, i.e., the concentrations at which 50% of the luciferase answer is inhibited in the case of the A1 cell, and, respectively, 50% of the maximum stimulation with the corresponding substance is achieved in the case of the A2b and A2a cells. […] Pharmacol., 357 (1998), 1-9).
(§4) Table 18 below lists the EC50 values of representative working examples for the receptor stimulation on adenosine A1, A2a and A2b receptor subtypes: […]

For experiment [2], the target named is T2, adenosine A2a receptor (Homo sapiens, UniProt P29274).
T2 construct: expressed in transfected cells; host or cells: CHO (Chinese Hamster Ovary)
Nature of the experiment: Indirect determination of adenosine agonism by way of gene expression (luciferase, CHO cells), A2a. Conditions: CHO cells stably transfected with A2a receptor cDNA; 50% of maximum luciferase stimulation.
From the text: as §1, §2, §3, §4

Experiment [3] deals with T3, adenosine A2b receptor (Homo sapiens, UniProt P29275).
T3 construct: expressed in transfected cells; host or cells: CHO (Chinese Hamster Ovary)
T3 sequence (P29275 1-332): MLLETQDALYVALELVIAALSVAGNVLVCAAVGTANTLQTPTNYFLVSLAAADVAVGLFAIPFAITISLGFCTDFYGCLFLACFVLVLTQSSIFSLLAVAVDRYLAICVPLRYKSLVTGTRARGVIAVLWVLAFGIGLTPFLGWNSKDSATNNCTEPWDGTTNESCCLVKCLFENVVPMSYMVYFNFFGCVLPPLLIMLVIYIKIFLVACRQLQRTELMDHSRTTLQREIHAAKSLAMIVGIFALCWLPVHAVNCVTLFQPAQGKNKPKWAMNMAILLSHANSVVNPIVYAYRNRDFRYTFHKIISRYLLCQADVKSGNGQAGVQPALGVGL
Nature of the experiment: Indirect determination of adenosine agonism by way of gene expression (luciferase, CHO cells), A2b. Conditions: CHO cells stably transfected with A2b receptor cDNA; 50% of maximum luciferase stimulation.
From the text: as §1, §2, §3, §4

As a reminder, the EC50 is the concentration needed to bring the measured effect to its halfway point.

T2 sequence (P29274 whole entry): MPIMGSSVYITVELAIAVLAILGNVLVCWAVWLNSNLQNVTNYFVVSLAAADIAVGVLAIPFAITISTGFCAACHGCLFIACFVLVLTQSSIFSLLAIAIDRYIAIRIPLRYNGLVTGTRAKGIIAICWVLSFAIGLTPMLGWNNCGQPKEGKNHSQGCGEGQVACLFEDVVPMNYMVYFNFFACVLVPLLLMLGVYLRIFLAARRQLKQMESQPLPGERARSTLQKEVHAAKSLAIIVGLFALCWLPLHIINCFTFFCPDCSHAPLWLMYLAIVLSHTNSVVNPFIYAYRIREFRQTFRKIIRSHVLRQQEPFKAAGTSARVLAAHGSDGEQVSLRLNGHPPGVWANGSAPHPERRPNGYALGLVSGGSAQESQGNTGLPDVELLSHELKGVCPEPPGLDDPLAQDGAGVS

As for `N#Cc1c(SCc2coc(-c3ccc(Cl)cc3)n2)nc(N2CC(O)C2)c(C#N)c1-c1ccc(OCCO)cc1` [Example 128], the concentration for a half-maximal effect (EC50) in experiment [1] turned out to be 0.1 nM; in experiment [2] it was 1050 nM; in experiment [3] it was 237 nM.
